Source: patent US20130023494A1, “MODULATORS OF THE GPR119 RECEPTOR AND THE TREATMENT OF DISORDERS RELATED THERETO” (ARENA PHARMACEUTICALS, INC., priority 2010, published 2013)

Experiments:
male 129SVE mice = assay: Oral glucose tolerance test (oGTT) in male 129SVE mice; assay type: in vivo, mouse; settings: for % Inhibition of Glucose Excursion: AUC reduction relative to vehicle
Procedure: Male 129SVE mice (approximately 8-week old) were fasted for 18 h and randomly grouped (n=6) to receive a GPR119 agonist (Compound 28) at 1, 3, or 10 mg/kg (mg/kg body weight). The compound was delivered orally via a gavage needle (p.o., volume 4 mL/kg) 30 minutes prior to glucose bolus (3 g/kg) (time=−30 min in FIG. 5), with a separate group receiving vehicle (20% hydroxypropyl-beta-cyclodextrin) as control. At time 0 min the glucose bolus was administered. Levels of blood glucose were assessed using a glucometer (One-Touch Ultra™, LifeScan) at time −30 minute (prior to compound administration), at 0 min (at time when glucose bolus was given), and at 20, 40, 60, 120 minutes post glucose bolus. The plasma glucose excursion curve is given in FIG. 5, and glucose excursion AUC (area under the curve) reduction in compound treated animals relative to vehicle control is given in FIG. 6, and in Table 2.

male diabetic ZDF rats = assay: Oral glucose tolerance test (oGTT) in male diabetic ZDF rats; assay type: in vivo, rat; settings: for % Inhibition of Glucose Excursion (dose: mg/kg): ZDF rats, glucose excursion AUC reduction relative to vehicle
Procedure: FIGS. 1 to 4, 16 and 17 show results of three independent experiments with three representative GPR119 agonists of the present invention, namely, Compound 28, Compound 62, and Compound 83. In each experiment, male ZDF rats (approximately 10-week old) were fasted for 18 hours and randomly grouped (n=6) to receive a GPR119 agonist (Compound 28, Compound 62, or Compound 83) at indicated doses (mg/kg body weight). Compounds were delivered orally via a gavage needle (p.o., volume 4 mL/kg) 1 h prior to glucose bolus (3 g/kg) (time=−60 min in FIGS. 1, 3, and 16), with a separate group receiving vehicle (20% hydroxypropyl-beta-cyclodextrin) as control in each experiment. At time 0 min the glucose bolus was administered. Levels of blood glucose were assessed using a glucometer (One-Touch Ultra™, LifeScan) at time −60 min (prior to compound administration), at 0 min (time when glucose bolus was given), and at 30, 60, 90, 120 min post glucose bolus. The plasma glucose excursion curves are given in FIGS. 1, 3, and 16, and glucose excursion AUC (area under the curve) reductions in compound treated animals relative to vehicle control are given in FIGS. 2, 4, and 17, and in Table 1.

incretin hormone GIP = assay: Incretin hormone GIP release in male 129SVE mice (Total GIP ELISA); assay type: in vivo, mouse; settings: 10 mpk p.o., plasma sample after 45 min, PET vehicle 72.5
Procedure: Male 129SVE mice (approximately 8-week old) were fasted for 18 h and randomly grouped (n=6) to receive a GPR119 agonist (Compound 28, Compound 73, Compound 71, Compound 62, and Compound 30) at 10 mpk dose (mg/kg body weight). Compounds were delivered orally via a gavage needle (p.o., volume 4 mL/kg), and after 45 min a blood sample was collected to determine plasma total GIP levels. A separate group received vehicle (PET: 80% PEG:10% Ethanol:10% Tween80™) as control. Plasma GIP levels were determined using a Total GIP ELISA kit from Millipore.

GPR119 = settings: combined administration with a DPP-IV inhibitor, compared with either agent alone; cited from earlier work
[1] = test system: human patients suffering with type 2 diabetes; settings: oral administration, human patients with type 2 diabetes; cited from earlier work
humans = settings: cited from earlier work

Compound: CC(C)OC(=O)N1CCC(O[C@H]2CC[C@H](Oc3cnc(S(C)(=O)=O)cn3)CC2)CC1 [Compound 28, isopropyl 4-((1r,4r)-4-(5-(methylsulfonyl)pyrazin-2-yloxy)cyclohexyloxy)piperidine-1-carboxylate]
- blood glucose after challenge with glucose (male 129SVE mice): lowered blood glucose
- % Inhibition of Glucose Excursion (male 129SVE mice; 1 mg/kg p.o. 30 minutes prior to glucose bolus (3 g/kg)): 24.9%
- % Inhibition of Glucose Excursion (male 129SVE mice; 3 mg/kg p.o. 30 minutes prior to glucose bolus (3 g/kg)): 26.4%
- % Inhibition of Glucose Excursion (male 129SVE mice; 10 mg/kg p.o. 30 minutes prior to glucose bolus (3 g/kg)): 35.7%
- % Inhibition of Glucose Excursion (dose: mg/kg) (male diabetic ZDF rats; 10 mg/kg p.o. 1 h prior to glucose bolus (3 g/kg)): 54.7% (10)
- % Inhibition of Glucose Excursion (dose: mg/kg) (male diabetic ZDF rats; 30 mg/kg p.o. 1 h prior to glucose bolus (3 g/kg)): 76.5% (30)
- blood glucose after challenge with glucose (male diabetic ZDF rats; diabetic ZDF rats): lowered blood glucose
- Total GIP, pg/mL (dose, mg/kg) (incretin hormone GIP): 468.1 pg/mL

Compound: CC(C)c1noc(C2CCN(c3ncnc(Nc4ccc(S(C)(=O)=O)cc4F)c3[N+](=O)[O-])CC2)n1 [Compound B111, (2-Fluoro-4-methanesulfonyl-phenyl)-{6-[4-(3-isopropyl-[1,2,4]oxadiazol-5-yl)-piperidin-1-yl]-5-nitro-pyrimidin-4-yl}-amine]
- glucose tolerance (GPR119): improved glucose tolerance to a significantly greater degree than either agent alone
- plasma GLP-1 levels (GPR119): acutely increased plasma GLP-1 levels

Compound: N[C@@H](CC(=O)N1CCn2c(nnc2C(F)(F)F)C1)Cc1cc(F)c(F)cc1F [sitagliptin, 3(R)-amino-1-[3-(trifluoromethyl)-5,6,7,8-tetrahydro[1,2,4]triazolo[4,3-a]pyrazin-7-yl]-4-(2,4,5-trifluorophenyl)butan-1-one]
- fasting glucose, postprandial glucose excursion and HbA1c levels [1]: reduce fasting glucose and postprandial glucose excursion in association with significantly reduced HbA1c levels

Compound: N#C[C@@H]1CCCN1C(=O)CNC12CC3CC(CC(O)(C3)C1)C2 [vildagliptin, 1-[2-(3-hydroxyadamant-1-ylamino)acetyl]pyrrolidine-2(S)-carbonitrile]
- fasting glucose, postprandial glucose excursion and HbA1c levels [1]: reduce fasting glucose and postprandial glucose excursion in association with significantly reduced HbA1c levels

Compound: PYY3-36: generated from PYY1-36 by cleavage of the N-terminal Tyr and Pro residues by dipeptidyl peptidase IV; Y2R selective agonist
- reduction of food intake (humans; human studies, infusion, over 24 hours): 33%
- time of decline to basal levels (humans; human, after infusion): ≤ 30 min
- time to peak serum levels of PYY3-36 (humans; human, infusion to reach normal postprandial circulatory concentrations): ≤ 15 min
